Counter-ions that a name gives are not always drawn.

This experiment concerns peripheral blood mononuclear cells (PBMCs) from healthy donors. As to the kind of experiment: IFN production by R848-activated PBMCs, quantified with twINNE luciferase reporter cell line. Type of experiment: cell-based, human. Conditions: Homo sapiens, PBMC; read-out: IC50 of anti-inflammatory activity (IFN production by activated PBMCs). The protocol:
The blood from healthy donors was obtained from “Etablissement Français du Sang” (convention #19/EFS/029), Paris, France.
In vitro experiments were performed using human peripheral blood mononuclear cells (PBMCs) isolated by density centrifugation from peripheral blood leukocyte separation medium, lymphoprep (Stemcell Technologies).
PBMCs were cultured in RPMI 1640 (Sigma-Aldrich, MO, USA) containing 10% heat-inactivated fetal bovine serum (Sigma-Aldrich, MO, USA) at 37° C./5% CO2.
The PBMCs used herein were prepared as described in part A “immune cells preparation”, above. PBMCs were seeded at 4.10^6/mL. Cells were pre-treated with different concentration of examples according to the invention. Cells were then stimulated with the TLR7/8 agonist resiquimod—R848 (Sigma-Aldrich, MO, USA) at 5 μg/mL.
To quantify the secretion of functional IFN, a biological assay based on a stable cell line where luciferase reporter gene is controlled by five Interferon-Stimulated Response Elements (twINNE cell line) was used. First, supernatants of R848-stimulated PBMCs (see part B above) were harvested after 24 h of stimulation and frozen at −20° C. for storage. Then, supernatants were dispensed in culture wells of a 96-well plate containing 35.103 twINNE cells per well in Dulbecco's Modified Eagle's Medium supplemented with 10% Foetal Bovine Serum, 100 U/mL Penicillin and 100 μg/mL Streptomycin (1% Pen-Strep) and 1 mM glutamine (Sigma-Aldrich, MO, USA) at 37° C./5% CO2. After 24 h of culture, luciferase activity was determined by adding 60 μL of Bright-Glo reagents (Promega, Wisconsin, USA) to culture wells and measuring bioluminescence with EnSpire Multimode Plate Reader (PerkinElmer, Massachusetts, USA). When stated, for IC50 calculation, dose-response curves fitted using the nonlin fit (variable slope) analysis in GraphPad Prism software (GraphPad Software, Califronia, USA).
IFN production was quantified (as specified in Materials and Methods, part C “quantification of interferon secretion”) using twINNE reporter cell line.
In the case of `C1=C(CSC2=NCc3ccccc3N2)N2C(=N[C@H]3CCCC[C@@H]32)S1` (relative stereo) [Example 13, trans-3-(((3,4-dihydroquinazolin-2-yl)thio)methyl)-4a,5,6,7,8,8a-hexahydrobenzo[4,5]imidazo[2,1-b]thiazole dihydrochloride], the IC50 was not above 10 µM.

Turning to `C1=C(CSC2=NCc3ccccc3N2)N2C(=N[C@H](c3ccccc3)[C@H]2c2ccccc2)S1` (relative stereo) [Example 16, trans-3-(((3,4-dihydroquinazolin-2-yl)thio)methyl)-5,6-diphenyl-5,6-dihydroimidazo[2,1-b]thiazole dihydrochloride], the IC50 is not above 10 µM. The same measure for `OC1(CSC2=NCc3ccccc3N2)CSC2=N[C@H](c3ccccc3)[C@@H](c3ccccc3)N21` (relative stereo) [Example 17, trans-3-(((3,4-dihydroquinazolin-2-yl)thio)methyl)-5,6-diphenyl-2,3,5,6-tetrahydroimidazo[2,1-b]thiazol-3-ol dihydrochloride]: more than 32 µM; for `c1ccc2c(c1)CN=C(SCCN1C[C@@H]3C[C@H]1CO3)N2` (stereo in doubt) [Example 139, (1S,4S)-5-(2-((1,4-dihydroquinazolin-2-yl)thio)ethyl)-2-oxa-5-azabicyclo[2.2.1]heptane dihydrochloride]: 10 to 32 µM. For the compound `c1ccc2c(c1)CN=C(SCCN1C[C@H]3C[C@@H]1CO3)N2` (stereo in doubt) [Example 146, (1R,4R)-5-(2-((1,4-dihydroquinazolin-2-yl)thio)ethyl)-2-oxa-5-azabicyclo[2.2.1]heptane dihydrochloride], the IC50 is 10 to 32 µM.

For the compound `CC1(C)CN2C(CSC3=NCc4cc(Cl)ccc4N3)=CSC2=N1` [Example 1, 3-(((6-chloro-1,4-dihydroquinazolin-2-yl)thio)methyl)-6,6-dimethyl-5,6-dihydroimidazo[2,1-b]thiazole dihydrochloride], the IC50 is not above 10 µM.

`CC1(C)CN=C(SCC2=CSC3=Nc4ccc(Cl)cc4CN23)N1` [Example 2, 7-chloro-3-(((5,5-dimethyl-4,5-dihydro-1H-imidazol-2-yl)thio)methyl)-5H-thiazolo[2,3-b]quinazoline dihydrochloride]: the 50% inhibitory concentration (IC50) lay within 10 to 32 µM. For `CC1(C)CN2C(CSC3=NCc4ccccc4N3)=CSC2=N1` [Example 3, 3-(((3,4-dihydroquinazolin-2-yl)thio)methyl)-6,6-dimethyl-5,6-dihydroimidazo[2,1-b]thiazole dihydrochloride], the IC50 was not above 10 µM. The same measure for `Clc1ccc2c(c1)CN1C(CSC3=NCCN3)=CSC1=N2` [Example 4, 7-chloro-3-(((4,5-dihydro-1H-imidazol-2-yl)thio)methyl)-5H-thiazolo[2,3-b]quinazoline dihydrochloride]: not above 10 µM; for `CC1(C)CN=C(SCC2=CSC3=Nc4ccccc4CN23)N1` [Example 5, 3-(((5,5-dimethyl-4,5-dihydro-1H-imidazol-2-yl)thio)methyl)-5H-thiazolo[2,3-b]quinazoline dihydrochloride]: 10 to 32 µM. The same measure for `CC1(C)CN2C(CSC3=NCc4ccc(Cl)cc4N3)=CSC2=N1` [Example 6, 3-(((7-chloro-1,4-dihydroquinazolin-2-yl)thio)methyl)-6,6-dimethyl-5,6-dihydroimidazo[2,1-b]thiazole dihydrochloride]: not above 10 µM. For the compound `CC1(C)CN2C(CSC3=NCc4ccccc4CN3)=CSC2=N1` [Example 7, 3-(((2,5-dihydro-1H-benzo[e][1,3]diazepin-3-yl)thio)methyl)-6,6-dimethyl-5,6-dihydroimidazo[2,1-b]thiazole dihydrochloride], the IC50 was more than 32 µM.

Consider `CC1(C)CN=C(SCC2=CSC3=NCc4ccccc4CN23)N1` [Example 8, 3-(((5,5-dimethyl-4,5-dihydro-1H-imidazol-2-yl)thio)methyl)-5,10-dihydrobenzo[e]thiazolo[3,2-a][1,3]diazepine dihydrochloride], for which the IC50 is not above 10 µM. On to `CC1(C)CN=C(SCC2=CSC3=Nc4cc(Cl)ccc4CN23)N1` [Example 9, 8-chloro-3-(((5,5-dimethyl-4,5-dihydro-1H-imidazol-2-yl)thio)methyl)-5H-thiazolo[2,3-b]quinazoline dihydrochloride], for which the IC50 fell in the range of 10 to 32 µM. The same measure for `Clc1ccc2c(c1)CN=C(SCC1=CSC3=NCCN13)N2` [Example 10, 3-(((6-chloro-1,4-dihydroquinazolin-2-yl)thio)methyl)-5,6-dihydroimidazo[2,1-b]thiazole dihydrochloride]: not above 10 µM; for `C1=C(CSC2=NCc3ccccc3N2)N2Cc3ccccc3CN=C2S1` [Example 11, 3-(((3,4-dihydroquinazolin-2-yl)thio)methyl)-5,10-dihydrobenzo[e]thiazolo[3,2-a][1,3]diazepine dihydrochloride]: not above 10 µM; for `C1=C(CSC2=NCc3ccccc3N2)N2Cc3ccccc3N=C2S1` [Example 12, 3-(((1,4-dihydroquinazolin-2-yl)thio)methyl)-5H-thiazolo[2,3-b]quinazoline dihydrochloride]: not above 10 µM. To `Clc1ccc(C2CN3C(CSC4=NCc5ccccc5N4)=CSC3=N2)cc1` (centres unmarked) [Example 14, 6-(4-chlorophenyl)-3-(((3,4-dihydroquinazolin-2-yl)thio)methyl)-5,6-dihydroimidazo[2,1-b]thiazole dihydrochloride] belongs not above 10 µM; to `C1=C(CSC2=NCc3ccccc3N2)N2CC(C3CCCCC3)N=C2S1` (centres unmarked) [Example 15, 6-cyclohexyl-3-(((3,4-dihydroquinazolin-2-yl)thio)methyl)-5,6-dihydroimidazo[2,1-b]thiazole dihydrochloride], not above 10 µM.

As to `Fc1cccc2c1CN1C(CSC3=NCc4ccccc4N3)=CSC1=N2` [Example 18, 3-(((3,4-dihydroquinazolin-2-yl)thio)methyl)-6-fluoro-5H-thiazolo[2,3-b]quinazoline dihydrochloride], the IC50 is not above 10 µM.

For the compound `Clc1ccc2c(c1)CN1C(CSC3=NCC(Cc4ccccc4)N3)=CSC1=N2` (centres unmarked) [Example 20, 3-(((5-benzyl-4,5-dihydro-1H-imidazol-2-yl)thio)methyl)-7-chloro-5H-thiazolo[2,3-b]quinazoline dihydrochloride], the IC50 is not above 10 µM. To `CC1(C)N=C(SCC2=CSC3=NCc4ccccc4CN23)Nc2ccccc21` [Example 21, 3-(((4,4-dimethyl-1,4-dihydroquinazolin-2-yl)thio)methyl)-5,10-dihydrobenzo[e]thiazolo[3,2-a][1,3]diazepine dihydrochloride] belongs not above 10 µM; to `Clc1ccc(C2CN=C(SCC3=CSC4=NCc5ccccc5CN34)N2)cc1` (centres unmarked) [Example 22, 3-(((4-(4-chlorophenyl)-4,5-dihydro-1H-imidazol-2-yl)thio)methyl)-5,10-dihydrobenzo[e]thiazolo[3,2-a][1,3]diazepine dihydrochloride], not above 10 µM; to `Fc1cccc2c1CN=C(SCC1=CSC3=NCc4ccccc4CN13)N2` [Example 23, 3-(((5-fluoro-1,4-dihydroquinazolin-2-yl)thio)methyl)-5,10-dihydrobenzo[e]thiazolo[3,2-a][1,3]diazepine dihydrochloride], not above 10 µM. Consider `C1=C(CSC2=N[C@@H](c3ccccc3)[C@H](c3ccccc3)N2)N2Cc3ccccc3CN=C2S1` [Example 24, 3-((((4S,5S)-4,5-diphenyl-4,5-dihydro-1H-imidazol-2-yl)thio)methyl)-5,10-dihydrobenzo[e]thiazolo[3,2-a][1,3]diazepine dihydrochloride], for which the IC50 was not above 10 µM. As for `C1=C(CSC2=NCCc3ccccc3N2)N2Cc3ccccc3CN=C2S1` [Example 25, 3-(((4,5-dihydro-1H-benzo[d][1,3]diazepin-2-yl)thio)methyl)-5,10-dihydrobenzo[e]thiazolo[3,2-a][1,3]diazepine dihydrochloride], the IC50 was not above 10 µM. To `C1=C(CSC2=NCC(C3CCCCC3)N2)N2Cc3ccccc3CN=C2S1` (centres unmarked) [Example 26, 3-(((4-cyclohexyl-4,5-dihydro-1H-imidazol-2-yl)thio)methyl)-5,10-dihydrobenzo[e]thiazolo[3,2-a][1,3]diazepine dihydrochloride] belongs not above 10 µM; to `C1=C(CSC2=Nc3ccccc3C(c3ccccc3)N2)N2Cc3ccccc3CN=C2S1` (centres unmarked) [Example 27, 3-(((4-phenyl-3,4-dihydroquinazolin-2-yl)thio)methyl)-5,10-dihydrobenzo[e]thiazolo[3,2-a][1,3]diazepine dihydrochloride], not above 10 µM; to `C1=C(CSC2=NCc3ccccc3N2)N2Cc3cccnc3N=C2S1` [Example 28, 3-(((3,4-dihydroquinazolin-2-yl)thio)methyl)-5H-pyrido[2,3-d]thiazolo[3,2-a]pyrimidine trihydrochloride], not above 10 µM.

For the origin of these results see patent US20240018125A1, “CYCLIC ISOTHIOUREA DERIVATIVES AS CXCR4 MODULATORS” (ERMIUM THERAPEUTICS, priority 2020, published 2024).
